Results as given in US20250282757A1, “ARYL ETHER-SUBSTITUTED HETEROCYCLIC COMPOUNDS AS GLP1R AGONISTS” (MINDRANK AI LTD., priority 2021, published 2025).

Target: GLP-1R (Homo sapiens, UniProt P43220)
Assay: Agonist activity on GLP-1R, HTRF cAMP detection in stably transfected GLP-1R/HEK293 cells
Assay type: cell-based
Details: for EC50: 30 min incubation; for Max activity: relative to top concentration of reference GLP-1(7-37)
Protocol: Detection of Agonist Activity of the Test Compounds on GLP-1R
• 1) The test compound was dissolved in DMSO and diluted 4-fold with Bravo for a total of 10 concentration gradients (the starting concentration was 1 mM). […] HBSS (10 mL) pre-warmed at 37° C. was added, mixed gently, and centrifuged at 1000 rpm for 5 minutes. The supernatant was discarded and another 10 mL of […] was added and mixed gently. […] The plate was shaken to mix at 2000 rpm for 60 seconds. • 7) The cells in the 384-well plate were incubated in CO2 cell incubator at 37° C. for 30 min. • 8) 10 μL of HTRF cAMP detection solution was added to the 384-well plate, stick with sealing film, and incubated at room temperature for 1 hour. • 9) After 1 hour of incubation, the sealing film was removed. The plate was put into the EnVision microplate reader to read the values of OD665 nm and OD615 nm.

Sequence of GLP-1R (P43220 24-463): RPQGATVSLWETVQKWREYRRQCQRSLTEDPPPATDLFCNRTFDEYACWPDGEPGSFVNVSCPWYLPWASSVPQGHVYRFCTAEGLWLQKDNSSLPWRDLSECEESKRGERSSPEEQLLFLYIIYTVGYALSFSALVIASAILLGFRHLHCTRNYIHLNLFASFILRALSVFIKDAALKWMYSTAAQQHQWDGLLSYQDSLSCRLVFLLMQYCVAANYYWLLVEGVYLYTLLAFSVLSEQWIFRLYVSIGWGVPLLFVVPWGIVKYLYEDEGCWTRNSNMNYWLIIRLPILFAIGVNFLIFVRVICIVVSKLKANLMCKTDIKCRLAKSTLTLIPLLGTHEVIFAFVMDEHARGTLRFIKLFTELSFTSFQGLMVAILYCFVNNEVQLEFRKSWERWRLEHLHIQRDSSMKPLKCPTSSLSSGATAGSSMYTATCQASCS

Compound | EC50 [nM] | Max activity [%]
N#CCC1(Cn2c(CN3CCC(Oc4cccc(COc5ccc(Cl)cc5F)n4)CC3)nc3ccc(C(=O)O)cc32)CC1 [Compound C84, 2-((4-((6-((4-chloro-2-fluorophenoxy)methyl)pyridin-2-yl)oxy)piperidin-1-yl)methyl)-1-((1-(cyanomethyl)cyclopropyl)methyl)-1H-benzo[d]imidazole-6-carboxylic acid] | 0.246 | 136.4
CCn1cncc1Cn1c(CN2CCC(Oc3ccc(F)c(OCc4ccc(Cl)cc4F)n3)CC2)nc2ccc(C(=O)O)cc21 [Compound C11, 2-((4-((6-((4-chloro-2-fluorobenzyl)oxy)-5-fluoropyridin-2-yl)oxy)piperidin-1-yl)methyl)-1-((1-ethyl-1H-imidazol-5-yl)methyl)-1H-benzo[d]imidazole-6-carboxylic acid] | 1.48 | 114.8
CCN1CCC[C@H]1Cn1c(CN2CCC(Oc3cccc(COc4ccc(C#N)cc4F)n3)CC2)nc2ccc(C(=O)O)cc21 [Compound C35, (S)-2-((4-((6-((4-cyano-2-fluorophenoxy)methyl)pyridin-2-yl)oxy)piperidin-1-yl)methyl)-1-((1-ethylpyrrolidin-2-yl)methyl)-1H-benzo[d]imidazole-6-carboxylic acid] | > 100 | –
N#Cc1ccc(OCc2cccc(NC3CCN(Cc4nc5ccc(C(=O)O)cc5n4C[C@@H]4CCO4)CC3)n2)c(F)c1 [Compound C16, (S)-2-((4-((6-((4-cyano-2-fluorophenoxy)methyl)pyridin-2-yl)amino)piperidin-1-yl)methyl)-1-(oxetan-2-ylmethyl)-1H-benzo[d]imidazole-6-carboxylic acid] | 2.54 | 99.2
N#Cc1ccc(COc2cccc(OC3CCN(Cc4nc5ccc(C(=O)O)cc5n4C[C@@H]4CCO4)CC3)n2)c(F)c1 [Compound S2, (S)-2-((4-((6-((4-cyano-2-fluorobenzyl)oxy)pyridin-2-yl)oxy)piperidin-1-yl)methyl)-1-(oxetan-2-ylmethyl)-1H-benzo[d]imidazole-6-carboxylic acid] | 5.58 | 139.9
CCn1cncc1Cn1c(CN2CCN(Cc3cccc(COc4ccc(C#N)cc4F)n3)CC2)nc2ccc(C(=O)O)cc21 [Compound C38, 2-((4-((6-((4-cyano-2-fluorophenoxy)methyl)pyridin-2-yl)methyl)piperazin-1-yl)methyl)-1-((1-ethyl-1H-imidazol-5-yl)methyl)-1H-benzo[d]imidazole-6-carboxylic acid] | > 100 | –
N#CCC1(Cn2c(CN3CCC(Oc4cccc(COc5ccc(C#N)cc5F)n4)CC3)nc3ccc(C(=O)O)cc32)CC1 [Compound 133, 2-((4-((6-((4-cyano-2-fluorophenoxy)methyl)pyridin-2-yl)oxy)piperidin-1-yl)methyl)-1-((1-(cyanomethyl)cyclopropyl)methyl)-1H-benzo[d]imidazole-6-carboxylic acid] | 0.264 | 126.6
N#Cc1ccc(OCc2cccc(OC3CCN(Cc4nc5ccc(C(=O)O)nc5n4C[C@@H]4CCO4)CC3)n2)c(F)c1 [Compound 60, (S)-2-((4-((6-((4-cyano-2-fluorophenoxy)methyl)pyridin-2-yl)oxy)piperidin-1-yl)methyl)-3-(oxetan-2-ylmethyl)-3H-imidazo[4,5-b]pyridine-5-carboxylic acid] | 0.455 | 112.0
C#Cc1ccc(OCc2cccc(OC3CCN(Cc4nc5ccc(C(=O)O)cc5n4C[C@@H]4CCO4)CC3)n2)c(F)c1 [Compound C15, (S)-2-((4-((6-((4-ethynyl-2-fluorophenoxy)methyl)pyridin-2-yl)oxy)piperidin-1-yl)methyl)-1-(oxetan-2-ylmethyl)-1H-benzo[d]imidazole-6-carboxylic acid] | 0.807 | 109.1
N#Cc1ccc(COc2cccc(OC3CN(Cc4nc5ccc(C(=O)O)cc5n4C[C@@H]4CCO4)C3)n2)c(F)c1 [Compound S3, (S)-2-((3-((6-((4-cyano-2-fluorobenzyl)oxy)pyridin-2-yl)oxy)azetidin-1-yl)methyl)-1-(oxetan-2-ylmethyl)-1H-benzo[d]imidazole-6-carboxylic acid] | 2170 | 70.1
N#Cc1ccc(OCc2cccc(OC3CCN(Cc4cc5ccc(C(=O)O)cc5n4CC4CCO4)CC3)n2)c(F)c1 (stereo not shown) [Compound C42, 2-((4-((6-((4-cyano-2-fluorophenoxy)methyl)pyridin-2-yl)oxy)piperidin-1-yl)methyl)-1-(oxetan-2-ylmethyl)-1H-indole-6-carboxylic acid] | > 100 | –
CCn1cncc1Cn1c(CN2CCC(Nc3cccc(COc4ccc(C#N)cc4F)n3)CC2)nc2ccc(C(=O)O)cc21 [Compound C17, 2-((4-((6-((4-cyano-2-fluorophenoxy)methyl)pyridin-2-yl)amino)piperidin-1-yl)methyl)-1-((1-ethyl-1H-imidazol-5-yl)methyl)-1H-benzo[d]imidazole-6-carboxylic acid] | 0.668 | 127.7
O=C(O)c1ccc2nc(CN3CCC(Oc4cccc(COc5ccc(Br)cc5F)n4)CC3)n(C[C@@H]3CCO3)c2c1 [Compound C4, (S)-2-((4-((6-((4-bromo-2-fluorophenoxy)methyl)pyridin-2-yl)oxy)piperidin-1-yl)methyl)-1-(oxetan-2-ylmethyl)-1H-benzo[d]imidazole-6-carboxylic acid] | 0.56 | 147.9
Glucagon-like peptide-1 [GLP-1(7-37), reference compound] | – | 98.1
N#Cc1ccc(COc2cccc(OC3CCN(Cc4nc5ccc(C(=O)O)cc5n4C[C@@H]4CCO4)CC3)c2)c(F)c1 [Compound S5, (S)-2-((4-(3-((4-cyano-2-fluorobenzyl)oxy)phenoxy)piperidin-1-yl)methyl)-1-(oxetan-2-ylmethyl)-1H-benzo[d]imidazole-6-carboxylic acid] | 15.4 | 125.2
N#Cc1ccc(COc2cccc(OCC3CCN(Cc4nc5ccc(C(=O)O)cc5n4C[C@@H]4CCO4)CC3)n2)c(F)c1 [Compound S1] | 1400 | 93.7
Cc1ncc(Cn2c(CN3CCC(Oc4cccc(COc5ccc(C#N)cc5F)n4)CC3)nc3ccc(C(=O)O)cc32)n1C [Compound C6, 2-((4-((6-((4-cyano-2-fluorophenoxy)methyl)pyridin-2-yl)oxy)piperidin-1-yl)methyl)-1-((1,2-dimethyl-1H-imidazol-5-yl)methyl)-1H-benzo[d]imidazole-6-carboxylic acid] | 13.8 | 99.8
CCn1cncc1Cn1c(CN2CCC(Oc3cccc(COc4ccc(C#N)cc4F)n3)CC2)nc2ccc(C(=O)O)nc21 [Compound 6, 2-((4-((6-((4-cyano-2-fluorophenoxy)methyl)pyridin-2-yl)oxy)piperidin-1-yl)methyl)-3-((1-ethyl-1H-imidazol-5-yl)methyl)-3H-imidazo[4,5-b]pyridine-5-carboxylic acid] | 0.133 | 114.8
N#CCC1(Cn2c(CN3CCC(Oc4cccc(OCc5ccc(C#N)cc5F)c4)CC3)nc3c(F)cc(C(=O)O)cc32)CC1 [Compound S6] | 2.6 | 114.9
N#Cc1ccc(OCc2cccc(SC3CCN(Cc4nc5ccc(C(=O)O)cc5n4C[C@@H]4CCO4)CC3)n2)c(F)c1 [Compound C41, (S)-2-((4-((6-((4-cyano-2-fluorophenoxy)methyl)pyridin-2-yl)thio)piperidin-1-yl)methyl)-1-(oxetan-2-ylmethyl)-1H-benzo[d]imidazole-6-carboxylic acid] | 4.16 | 122.3
N#Cc1ccc(OCc2cccc(OC3CCN(Cc4nc5ccc(C(=O)O)cc5n4Cc4cncn4CC4CC4)CC3)n2)c(F)c1 [Compound C33, 2-((4-((6-((4-cyano-2-fluorophenoxy)methyl)pyridin-2-yl)oxy)piperidin-1-yl)methyl)-1-((1-(cyclopropylmethyl)-1H-imidazol-5-yl)methyl)-1H-benzo[d]imidazole-6-carboxylic acid] | 0.068 | 99.1
C#Cc1ccc(OCc2cccc(OC3CCN(Cc4nc5ccc(C(=O)O)cc5n4CC4(CC#N)CC4)CC3)n2)c(F)c1 [Compound C25, 1-((1-(cyanomethyl)cyclopropyl)methyl)-2-((4-((6-((4-ethynyl-2-fluorophenoxy)-methyl)pyridine-2-yl)oxy)piperidin-1-yl)methyl)-1H-benzo[d]imidazole-6-carboxylic acid] | 0.512 | 133.4
C#Cc1ccc(OCc2cccc(OC3CCN(Cc4nc5ccc(C(=O)O)cc5n4Cc4cncn4C(C)C)CC3)c2)c(F)c1 [Compound C29, 2-((4-(3-((4-ethynyl-2-fluorophenoxy)methyl)phenoxy)piperidin-1-yl)methyl)-1-((1-isopropyl-1H-imidazol-5-yl)methyl)-1H-benzo[d]imidazole-6-carboxylic acid] | 6.83 | 121.6
C#Cc1ccc(OCc2cccc(OC3CCN(Cc4nc5ccc(C(=O)O)cc5n4Cc4cncn4CC)CC3)n2)c(F)c1 [Compound C14] | 0.315 | 101.9
CCn1cncc1Cn1c(CN2CCC(Oc3cccc(OCc4ccc(C#N)cc4F)c3)CC2)nc2ccc(C(=O)O)cc21 [Compound S23, 2-((4-(3-((4-cyano-2-fluorobenzyl)oxy)phenoxy)piperidin-1-yl)methyl)-1-((1-ethyl-1H-imidazol-5-yl)methyl)-1H-benzo[d]imidazole-6-carboxylic acid] | 1.47 | 98.0
